Test results reported in ChEMBL document CHEMBL1123283, “Quinazoline antifolates inhibiting thymidylate synthase: variation of the amino acid” (1986).
pIC50: −log10 of the molar value.

Key:
L1210 = assay: Inhibitory dose for L1210 cells in culture. Not tested at higher concentrations because of their limited solubility; type: functional; settings: Mus musculus, read-out: ID50 (the source's name)
[1] = target: Thymidylate synthase (Mus musculus) (UniProt P07607)
Chain of Thymidylate synthase (Mus musculus) (P07607 whole entry, looked up): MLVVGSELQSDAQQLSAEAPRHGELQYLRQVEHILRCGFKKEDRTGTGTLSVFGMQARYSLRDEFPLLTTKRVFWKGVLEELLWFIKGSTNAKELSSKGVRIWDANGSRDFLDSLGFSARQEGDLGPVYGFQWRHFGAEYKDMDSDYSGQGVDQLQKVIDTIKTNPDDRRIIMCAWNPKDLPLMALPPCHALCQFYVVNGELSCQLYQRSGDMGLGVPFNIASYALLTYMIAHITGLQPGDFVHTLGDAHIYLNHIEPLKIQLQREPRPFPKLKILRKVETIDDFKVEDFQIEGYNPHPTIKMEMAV
Description: Inverse relative potency for the inhibition of L1210 thymidylate synthase

Compound | pIC50 (L1210) | Potency [1]
C#CCN(Cc1ccc2nc(N)nc(O)c2c1)c1ccc(C(=O)O)cc1 | < 3.70 | 84
C#CCN(Cc1ccc2[nH]c(N)nc(=O)c2c1)c1ccc(C(=O)NC(CCC(=O)O)C(=O)O)cc1 (stereo not drawn) | 5.30 | –
C#CCN(Cc1ccc2nc(N)nc(O)c2c1)c1ccc(C(=O)NCC(=O)O)cc1 | < 4.00 | 20.7
C#CCN(Cc1ccc2nc(N)nc(O)c2c1)c1ccc(CCCC(=O)O)cc1 | < 5.00 | 333
C#CCN(Cc1ccc2nc(N)nc(O)c2c1)c1ccc(C(=O)NC(CC(=O)O)C(=O)O)cc1 (stereo not drawn) | < 3.86 | 8.9
C#CCN(Cc1ccc2nc(N)nc(O)c2c1)c1ccc(C(=O)NC(C)C(=O)O)cc1 (stereo not drawn) | < 5.00 | 5.2
C#CCN(Cc1ccc2nc(N)nc(O)c2c1)c1ccc(C(=O)NC(CCC(=O)OCC)C(=O)OCC)cc1 (stereo not drawn) | 4.28 | > 62
